Converted amounts (≈) assume the structure as drawn.
Assays:
Escherichia coli = assay: Antibacterial activity against Escherichia coli ATCC 25922 after 24 hrs by broth microdilution method; format: functional; settings: ATCC 25922, 24 h
Enterococcus faecalis = assay: Antibacterial activity against Enterococcus faecalis ATCC 29212 after 24 hrs by broth microdilution method; format: functional; settings: ATCC 29212, 24 h
Staphylococcus aureus = assay: Antibacterial activity against Staphylococcus aureus ATCC 29213 after 24 hrs by broth microdilution method; format: functional; settings: ATCC 29213, 24 h
Pichia kudriavzevii [1] = assay: Ratio of fluconazole MIC to compound MIC for Candida krusei ATCC 6258; format: functional
Pichia kudriavzevii [2] = assay: Antifungal activity against Candida krusei ATCC 6258 after 24 to 48 hrs by broth microdilution method; format: functional
Candida tropicalis = assay: Antifungal activity against Candida tropicalis ATCC 750 after 24 to 48 hrs by broth microdilution method; format: functional
Candida parapsilosis = assay: Antifungal activity against Candida parapsilosis ATCC 22019 after 24 to 48 hrs by broth microdilution method; format: functional; settings: Lodderomyces parapsilosis
Candida albicans = assay: Antifungal activity against Candida albicans ATCC 10231 after 24 to 48 hrs by broth microdilution method; format: functional
THP-1 [3] = assay: Cytotoxicity against human THP1 cells assessed as release of lactate dehydrogenase at 10 times MIC after 24 hrs; format: cell-based; settings: thp-1, 24 h
THP-1 [4] = assay: Cytotoxicity against human THP1 cells at 4 times MIC after 24 hrs by trypan blue exclusion assay; format: cell-based; settings: thp-1, 24 h
THP-1 [5] = assay: Cytotoxicity against human THP1 cells assessed as release of lactate dehydrogenase at 4 times MIC after 24 hrs; format: cell-based; settings: thp-1, 24 h

CCn1cc(C(=O)O)c(=O)c2cc(F)c(N3CCNCC3)cc21 [NORFLOXACIN]
MIC (Escherichia coli): 0.03 µg/mL (≈ 0.0939 µM)
MIC (Enterococcus faecalis): 4 µg/mL (≈ 12.5 µM)
MIC (Staphylococcus aureus): 0.5 µg/mL (≈ 1.57 µM)

Nc1nc2ccc(OCCCc3ccccc3)cc2s1
Ratio (Pichia kudriavzevii [1]): 2
MIC (Pichia kudriavzevii [2]): 16 µg/mL (≈ 56.3 µM)
MIC (Candida tropicalis): 16 µg/mL (≈ 56.3 µM)
MIC (Candida parapsilosis): 16 µg/mL (≈ 56.3 µM)
MIC (Candida albicans): 32 µg/mL (≈ 113 µM)
MIC (Escherichia coli): > 512 µg/mL
MIC (Enterococcus faecalis): 128 µg/mL (≈ 450 µM)
MIC (Staphylococcus aureus): 512 µg/mL (≈ 1800 µM)

COc1ccc2nc(N)sc2c1
MIC (Pichia kudriavzevii [2]): 512 µg/mL (≈ 2840 µM)
MIC (Candida tropicalis): 256 µg/mL (≈ 1420 µM)
MIC (Candida parapsilosis): 256 µg/mL (≈ 1420 µM)
MIC (Candida albicans): 256 µg/mL (≈ 1420 µM)
MIC (Escherichia coli): > 512 µg/mL
MIC (Enterococcus faecalis): 128 µg/mL (≈ 710 µM)
MIC (Staphylococcus aureus): 128 µg/mL (≈ 710 µM)

Nc1nc2ccc(Oc3ccc(Cl)cc3)cc2s1
Activity (THP-1 [3]): Non-toxic
MIC (Pichia kudriavzevii [2]): 32 µg/mL (≈ 116 µM)
MIC (Candida tropicalis): 8 µg/mL (≈ 28.9 µM)
MIC (Candida parapsilosis): 4 µg/mL (≈ 14.5 µM)
MIC (Candida albicans): 8 µg/mL (≈ 28.9 µM)
MIC (Escherichia coli): > 512 µg/mL
MIC (Enterococcus faecalis): 512 µg/mL (≈ 1850 µM)
MIC (Staphylococcus aureus): 512 µg/mL (≈ 1850 µM)

CCOc1ccc2nc(N)sc2c1
MIC (Pichia kudriavzevii [2]): 256 µg/mL (≈ 1320 µM)
MIC (Candida tropicalis): 128 µg/mL (≈ 659 µM)
MIC (Candida parapsilosis): 128 µg/mL (≈ 659 µM)
MIC (Candida albicans): 128 µg/mL (≈ 659 µM)
MIC (Escherichia coli): > 512 µg/mL
MIC (Enterococcus faecalis): 512 µg/mL (≈ 2640 µM)
MIC (Staphylococcus aureus): 512 µg/mL (≈ 2640 µM)

Nc1nc2ccc(OCc3ccccc3)cc2s1
MIC (Pichia kudriavzevii [2]): 64 µg/mL (≈ 250 µM)
MIC (Candida tropicalis): 8 µg/mL (≈ 31.2 µM)
MIC (Candida parapsilosis): 8 µg/mL (≈ 31.2 µM)
MIC (Candida albicans): 8 µg/mL (≈ 31.2 µM)
MIC (Escherichia coli): > 512 µg/mL
MIC (Enterococcus faecalis): > 512 µg/mL
MIC (Staphylococcus aureus): > 512 µg/mL

Nc1nc2ccc(OCCc3ccccc3)cc2s1
Ratio (Pichia kudriavzevii [1]): 2
MIC (Pichia kudriavzevii [2]): 16 µg/mL (≈ 59.2 µM)
MIC (Candida tropicalis): 32 µg/mL (≈ 118 µM)
MIC (Candida parapsilosis): 16 µg/mL (≈ 59.2 µM)
MIC (Candida albicans): 8 µg/mL (≈ 29.6 µM)
MIC (Escherichia coli): > 512 µg/mL
MIC (Enterococcus faecalis): 128 µg/mL (≈ 473 µM)
MIC (Staphylococcus aureus): > 512 µg/mL

Nc1nc2ccc(COc3ccccc3)cc2s1
MIC (Pichia kudriavzevii [2]): 64 µg/mL (≈ 250 µM)
MIC (Candida tropicalis): 16 µg/mL (≈ 62.4 µM)
MIC (Candida parapsilosis): 16 µg/mL (≈ 62.4 µM)
MIC (Candida albicans): 32 µg/mL (≈ 125 µM)
MIC (Escherichia coli): > 512 µg/mL
MIC (Enterococcus faecalis): 128 µg/mL (≈ 499 µM)
MIC (Staphylococcus aureus): 256 µg/mL (≈ 999 µM)

Nc1nc2ccc(Oc3ccccc3)cc2s1
MIC (Pichia kudriavzevii [2]): 32 µg/mL (≈ 132 µM)
MIC (Candida tropicalis): 32 µg/mL (≈ 132 µM)
MIC (Candida parapsilosis): 16 µg/mL (≈ 66 µM)
MIC (Candida albicans): 128 µg/mL (≈ 528 µM)
MIC (Escherichia coli): > 512 µg/mL
MIC (Enterococcus faecalis): > 512 µg/mL
MIC (Staphylococcus aureus): > 512 µg/mL

Nc1nc2ccc(OC(F)(F)F)cc2s1 [RILUZOLE]
MIC (Pichia kudriavzevii [2]): 128 µg/mL (≈ 547 µM)
MIC (Candida tropicalis): 128 µg/mL (≈ 547 µM)
MIC (Candida parapsilosis): 64 µg/mL (≈ 273 µM)
MIC (Candida albicans): 64 µg/mL (≈ 273 µM)
MIC (Escherichia coli): 512 µg/mL (≈ 2190 µM)
MIC (Enterococcus faecalis): 512 µg/mL (≈ 2190 µM)
MIC (Staphylococcus aureus): 256 µg/mL (≈ 1090 µM)

Nc1nc2ccc(OCc3ccc(Cl)cc3)cc2s1
Activity (THP-1 [4]): Toxic
Activity (THP-1 [5]): Toxic
MIC (Pichia kudriavzevii [2]): 64 µg/mL (≈ 220 µM)
MIC (Candida tropicalis): 4 µg/mL (≈ 13.8 µM)
MIC (Candida parapsilosis): 8 µg/mL (≈ 27.5 µM)
MIC (Candida albicans): 4 µg/mL (≈ 13.8 µM)
MIC (Escherichia coli): > 512 µg/mL
MIC (Enterococcus faecalis): 256 µg/mL (≈ 880 µM)
MIC (Staphylococcus aureus): 256 µg/mL (≈ 880 µM)

OC(Cn1cncn1)(Cn1cncn1)c1ccc(F)cc1F [FLUCONAZOLE]
MIC (Pichia kudriavzevii [2]): 32 µg/mL (≈ 104 µM)
MIC (Candida tropicalis): 4 µg/mL (≈ 13.1 µM)
MIC (Candida parapsilosis): 2 µg/mL (≈ 6.53 µM)
MIC (Candida albicans): 2 µg/mL (≈ 6.53 µM)

Nc1nc2ccc(C(F)(F)F)cc2s1
MIC (Pichia kudriavzevii [2]): 64 µg/mL (≈ 293 µM)
MIC (Candida tropicalis): 64 µg/mL (≈ 293 µM)
MIC (Candida parapsilosis): 64 µg/mL (≈ 293 µM)
MIC (Candida albicans): 16 µg/mL (≈ 73.3 µM)
MIC (Escherichia coli): > 512 µg/mL
MIC (Enterococcus faecalis): 256 µg/mL (≈ 1170 µM)
MIC (Staphylococcus aureus): 256 µg/mL (≈ 1170 µM)

Nc1nc2ccc(OCCCCc3ccccc3)cc2s1
MIC (Pichia kudriavzevii [2]): > 512 µg/mL
MIC (Candida tropicalis): 512 µg/mL (≈ 1720 µM)
MIC (Candida parapsilosis): 128 µg/mL (≈ 429 µM)
MIC (Candida albicans): 512 µg/mL (≈ 1720 µM)
MIC (Escherichia coli): > 512 µg/mL
MIC (Enterococcus faecalis): 256 µg/mL (≈ 858 µM)
MIC (Staphylococcus aureus): 512 µg/mL (≈ 1720 µM)
